The values that follow come from patent US5428059A, “Benzopyran derivatives and an anti-allergic agent possessing the same as the active ingredient” (Dainippon Ink & Chemicals, Inc., priority 1991, dated 1995).

In series [1] the test system is Hartley-type male guinea pigs. As to the kind of experiment: Guinea Pig Homogeneous Skin Passive Anaphylaxis Assay (PCA reaction). The class given is in vivo, guinea pig (Hartley-type). The following applies: for inhibition in vivo at 10 mg/kg: 10 mg/kg oral. The essentials:
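Inhibition % is derived from Evans Blue leakage area (mm^2, product of spot diameters) read 30 min after i.v. OVA/dye challenge. Beforehand, male Hartley guinea pigs (250~300 g) were passively sensitized intradermally with 120-fold-diluted anti-OVA serum and, after 48 h, received test compound 10 mg/kg p.o.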

Series [2] is described as follows: Mouse Acute Toxicity Assay (oral, 7 days observation). The following applies: in vivo, ICR-type male mice, single forced oral administration 1000 and 2000 mg/kg, estimated from survival ratio. On the procedure:
Mouse Acute Toxicity Assay
The present Example was carried out in order to confirm the safety of the novel compound according to the present invention. In the following the assay method used will be explained.
Assay method: After ICR-type male mice (body weight=20~25 g) were fasted for 16 hours, each substance to be tested was forcibly administered orally at 1000 mg/kg and 2000 mg/kg to groups of five mice, using a esophageal sound. After administration, the mice were kept in cages for seven days, following which observations were made on the general conditions and existence of dead animals. From the survival ratio of the mice at the end of the observation, the lethal dose 50 (LD50) was estimated.
The results of the mouse acute toxicity assay are recorded in Tables 1 and 2.

For series [3] the following is noted: oral administration; cited from earlier work.
Another series deals with mice. The following applies: Tranilast, cited from earlier work.
Setting [4] is: Cavia porcellus, 48 h after sensitization, read-out: Allergic reaction inhibitory index (%).

In the case of `CC(=O)Oc1ccc2oc(=O)c(OC/C=C(\C)CCC=C(C)C)c(O)c2c1` [Compound 271, 3-(geranyloxy)-4-hydroxy-6-(acetoxy)-2H-1-benzopyran-2-one], in series [1] (setting [4]), the inhibition in vivo at 10 mg/kg was found to be 33%. In addition, in series [2], the LD50 at 168 h is > 1000 mg/kg. For `COc1c(O)c2cc(OC(C)=O)ccc2oc1=O` [Compound 270, 3-(methoxy)-4-hydroxy-6-(acetoxy)-2H-1-benzopyran-2-one], in that order: 35% and > 2000 mg/kg. Turning to `O=C(O)c1cc(=O)c2c(OCC(O)COc3cccc4oc(C(=O)O)cc(=O)c34)cccc2o1` [Disodium Cromoglicate], the “absorption into the living body” value in series [3] is reported as “difficult to absorb”.

With `CC(C)=CCC/C(C)=C/COc1c(O)c2cc(O)ccc2oc1=O` [Compound 269, 4,6-(dihydroxy)-3-(geranyloxy)-2H-1-benzopyran-2-one], in series [1] (setting [4]), the inhibition in vivo at 10 mg/kg was 33%. Also, in series [2], the LD50 at 168 h is > 1000 mg/kg. Take `COc1ccc(/C=C/C(=O)Nc2ccccc2C(=O)O)cc1OC` [Tranilast, reference compound]: the “acute toxic value (LD50)” value in the series with mice (background) was 680 to 780 mg/kg. Also, the LD50 in the series on mice (male mice) is recorded as 780 mg/kg. In addition, the inhibition in vivo at 100 mg/kg in series [1] (Cavia porcellus, positive control, 100 mg/kg oral, 48 h after sensitization, read-out: Allergic reaction inhibitory index (%)) came to 52%. Besides, the “anti-allergic action, compounds of the invention (10 mg/kg) versus Tranilast (100 mg/kg)” value in series [1] (oral) was “approximately equal to or less than the anti-allergic action exhibited by the compounds of the present invention”. On to `CCCCCCCCCCOc1cccc2oc(=O)c(O)c(OC(C)=O)c12` [Compound 231, 3-hydroxy-4-(acetoxy)-5-(decyloxy)-2H-1-benzopyran-2-one], for which the inhibition in vivo at 10 mg/kg in series [1] (setting [4]) was 31%. Same read-out and setting: as for `COc1ccc2c(OC/C=C(\C)CCC=C(C)C)c(OC(C)=O)c(=O)oc2c1` [Compound 40, 3-(acetoxy)-4-(geranyloxy)-7-(methoxy)-2H-1-benzopyran-2-one], the figure is 34%. Take `CCCCCCCCCCOc1c(OC)c(=O)oc2c(OC(C)C)cccc12` [Compound 135, 3-(methoxy)-4-(decyloxy)-8-(isopropoxy)-2H-1-benzoyran-2-one]: the inhibition in vivo at 10 mg/kg in series [1] (setting [4]) was found to be 30%.

Take `COc1c(OC/C=C(\C)CCC=C(C)C)c2ccc(OC(C)C)cc2oc1=O` [Compound 56, 3-(methoxy)-4-(geranyloxy)-7-(isopropoxy)-2H-1-benzopyran-2-one]: the inhibition in vivo at 10 mg/kg in series [1] (setting [4]) is 31%.

Turning to `COc1c(O)c2cc(O)ccc2oc1=O` [Compound 265, 3-(methoxy)-4,6-(dihydroxy)-2H-1-benzopyran-2-one], the inhibition in vivo at 10 mg/kg in series [1] (setting [4]) is 37%. Regarding `O=C(Oc1c(O)c2ccc(O)cc2oc1=O)c1ccccc1` [Compound 4, 3-(benzoyloxy)-4,7-dihydroxy-2H-1-benzopyran-2-one], in series [1] (setting [4]), the inhibition in vivo at 10 mg/kg turned out to be 43%. On the same count and under the same terms, as for `COc1c(O)c2cccc(OC/C=C(\C)CCC=C(C)C)c2oc1=O` [Compound 162, 3-(methoxy)-4-hydroxy-8-(geranyloxy)-2H-1-benzopyran-2-one], the figure is 31%. The same measure, in the same setting: the value for `CC(C)=CCC/C(C)=C/COc1c(OC(C)C)c2c(OC(C)C)cccc2oc1=O` [Compound 221, 3-(geranyloxy)-4,5-(diisopropoxy)-2H-1-benzopyran-2-one] was 33%.

`CCCCCCCCCCOc1c(O)c2cccc(O)c2oc1=O` [Compound 97, 3-(decyloxy)-4,8-(dihydroxy)-2H-1-benzopyran-2-one]: the inhibition in vivo at 10 mg/kg in series [1] (setting [4]) turned out to be 34%.

For the compound `COc1c(OC(C)=O)c2c(OC/C=C(\C)CCC=C(C)C)cccc2oc1=O` [Compound 252, 3-(methoxy)-4-(acetoxy)-5-(geranyloxy)-2H-1-benzopyran-2-one], the inhibition in vivo at 10 mg/kg in series [1] (setting [4]) was 32%. Still for that read-out and setting: as for `CCCCCCCCCCOc1ccc2c(OC/C=C(\C)CCC=C(C)C)c(O)c(=O)oc2c1` [Compound 68, 3-hydroxy-4-(geranyloxy)-7-(decyloxy)-2H-1-benzopyran-2-one], the figure is 32%; as for `CCCCCCCCCCOc1ccc2c(OC)c(OC(=O)c3ccccc3)c(=O)oc2c1` [Compound 65, 3-(benzoyloxy)-4-(methoxy)-7-(decyloxy)-2H-1-benzopyran-2-one], 32%. On the same count and under the same terms, as for `CCCCCCCCCCOc1c(OC)c(=O)oc2cc(OC(C)C)ccc12` [Compound 50, 3-(methoxy)-4-(decyloxy)-7-(isopropoxy)-2H-1-benzopyran-2-one], the figure is 33%; as for `COc1cccc2oc(=O)c(OC/C=C(\C)CCC=C(C)C)c(OC/C=C(\C)CCC=C(C)C)c12` [Compound 209, 3,4-(digeranyloxy)-5-(methoxy)-2H-1-benzopyran-2-one], 33%. As for `CC(C)=CCC/C(C)=C/COc1ccc2oc(=O)c(O)c(O)c2c1` [Compound 280, 3,4-(dihydroxy)-6-(geranyloxy)-2H-1-benzopyran-2-one], the inhibition in vivo at 10 mg/kg in series [1] (setting [4]) came out at 35%. In series [2], the median lethal dose (LD50) at 168 h was > 1000 mg/kg. In the case of `CCCCCCCCCCOc1ccc2c(OC(C)=O)c(OC/C=C(\C)CCC=C(C)C)c(=O)oc2c1` [Compound 69, 3-(geranyloxy)-4-(acetoxy)-7-(decyloxy)-2H-1-benzopyran-2-one], the inhibition in vivo at 10 mg/kg in series [1] (setting [4]) turned out to be 33%. Same read-out and setting: as for `COc1cccc2c(OC(=O)c3ccccc3)c(OC(C)=O)c(=O)oc12` [Compound 114, 3-(acetoxy)-4-(benzoyloxy)-8-(methoxy)-2H-1-benzopyran-2-one], the figure is 31%; as for `CC(C)Oc1c(OC(=O)c2ccccc2)c2ccc(O)cc2oc1=O` [Compound 13, 3-(isopropoxy)-4-(benzoyloxy)-7-hydroxy-2H-1-benzopyran-2-one], 32%. Take `CCCCCCCCCCOc1cccc2c(O)c(OC(C)C)c(=O)oc12` [Compound 147, 3-(isopropoxy)-4-hydroxy-8-(decyloxy)-2H-1-benzopyran-2-one]: the inhibition in vivo at 10 mg/kg in series [1] (setting [4]) stood at 30%. For the compound `CC(=O)Oc1c(OC(C)=O)c2c(OC(C)C)cccc2oc1=O` [Compound 213, 3,4-(diacetoxy)-5-(isopropoxy)-2H-1-benzopyran-2-one], the inhibition in vivo at 10 mg/kg in series [1] (setting [4]) came to 33%. As to `CCCCCCCCCCOc1cccc2oc(=O)c(OC/C=C(\C)CCC=C(C)C)c(OC)c12` [Compound 241, 3-(geranyloxy)-4-(methoxy)-5-(decyloxy)-2H-1-benzopyran-2-one], the inhibition in vivo at 10 mg/kg in series [1] (setting [4]) was 32%. Still for that read-out and setting: the value for `COc1cccc2c(OC(C)C)c(O)c(=O)oc12` [Compound 116, 3-hydroxy-4-(isopropoxy)-8-(methoxy).2H-1-benzopyran-2-one] was 34%; that for `CCCCCCCCCCOc1ccc2c(OC(C)C)c(OC)c(=O)oc2c1` [Compound 64, 3-(methoxy)-4-(isopropoxy)-7-(decyloxy)-2H-1-benzopyran-2-one] was 30%.
